The values that follow come from BindingDB's records for patent WO2025049746 (Eikon Therapeutics, 2025).

The structures appear in SMILES notation.

For assay [1], the target named is Bifunctional 3'-5' exonuclease/ATP-dependent helicase WRN (Homo sapiens, UniProt Q14191). Briefly: ADP-Glo Kinase Assay. Here is the method: ATPase activity was measured using the ADP-Glo Kinase Assay following the manufacturers recommended protocol.
On the technique in general: In ADP-Glo the light output rises with the ADP produced.

Assay [2] deals with T1, Bifunctional 3'-5' exonuclease/ATP-dependent helicase WRN [480-1251] (UniProt Q14191).
T1 construct: 480-1251
Briefly: Biochemical Activity Assays.

T1 sequence (Q14191 480-1251): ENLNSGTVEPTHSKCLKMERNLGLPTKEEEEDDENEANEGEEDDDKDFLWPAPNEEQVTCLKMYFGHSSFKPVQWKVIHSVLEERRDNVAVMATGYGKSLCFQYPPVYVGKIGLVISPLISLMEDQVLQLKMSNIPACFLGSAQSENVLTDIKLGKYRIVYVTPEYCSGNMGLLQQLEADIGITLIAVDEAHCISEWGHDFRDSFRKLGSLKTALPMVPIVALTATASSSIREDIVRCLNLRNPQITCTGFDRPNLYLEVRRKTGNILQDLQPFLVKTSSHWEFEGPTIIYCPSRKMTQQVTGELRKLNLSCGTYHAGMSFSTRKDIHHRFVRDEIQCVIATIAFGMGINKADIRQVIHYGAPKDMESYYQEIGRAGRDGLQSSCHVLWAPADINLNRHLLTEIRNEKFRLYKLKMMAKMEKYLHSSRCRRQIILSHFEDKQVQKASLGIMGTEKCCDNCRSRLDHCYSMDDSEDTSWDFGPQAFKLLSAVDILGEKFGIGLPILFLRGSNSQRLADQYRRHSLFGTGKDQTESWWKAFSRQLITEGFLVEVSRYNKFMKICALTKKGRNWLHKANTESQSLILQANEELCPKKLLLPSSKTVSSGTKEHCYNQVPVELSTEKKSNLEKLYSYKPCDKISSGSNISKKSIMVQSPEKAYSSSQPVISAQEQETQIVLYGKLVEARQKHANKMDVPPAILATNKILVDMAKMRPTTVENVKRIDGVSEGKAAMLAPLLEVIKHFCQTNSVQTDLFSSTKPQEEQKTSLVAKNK
Chain of Bifunctional 3'-5' exonuclease/ATP-dependent helicase WRN (Q14191 whole entry): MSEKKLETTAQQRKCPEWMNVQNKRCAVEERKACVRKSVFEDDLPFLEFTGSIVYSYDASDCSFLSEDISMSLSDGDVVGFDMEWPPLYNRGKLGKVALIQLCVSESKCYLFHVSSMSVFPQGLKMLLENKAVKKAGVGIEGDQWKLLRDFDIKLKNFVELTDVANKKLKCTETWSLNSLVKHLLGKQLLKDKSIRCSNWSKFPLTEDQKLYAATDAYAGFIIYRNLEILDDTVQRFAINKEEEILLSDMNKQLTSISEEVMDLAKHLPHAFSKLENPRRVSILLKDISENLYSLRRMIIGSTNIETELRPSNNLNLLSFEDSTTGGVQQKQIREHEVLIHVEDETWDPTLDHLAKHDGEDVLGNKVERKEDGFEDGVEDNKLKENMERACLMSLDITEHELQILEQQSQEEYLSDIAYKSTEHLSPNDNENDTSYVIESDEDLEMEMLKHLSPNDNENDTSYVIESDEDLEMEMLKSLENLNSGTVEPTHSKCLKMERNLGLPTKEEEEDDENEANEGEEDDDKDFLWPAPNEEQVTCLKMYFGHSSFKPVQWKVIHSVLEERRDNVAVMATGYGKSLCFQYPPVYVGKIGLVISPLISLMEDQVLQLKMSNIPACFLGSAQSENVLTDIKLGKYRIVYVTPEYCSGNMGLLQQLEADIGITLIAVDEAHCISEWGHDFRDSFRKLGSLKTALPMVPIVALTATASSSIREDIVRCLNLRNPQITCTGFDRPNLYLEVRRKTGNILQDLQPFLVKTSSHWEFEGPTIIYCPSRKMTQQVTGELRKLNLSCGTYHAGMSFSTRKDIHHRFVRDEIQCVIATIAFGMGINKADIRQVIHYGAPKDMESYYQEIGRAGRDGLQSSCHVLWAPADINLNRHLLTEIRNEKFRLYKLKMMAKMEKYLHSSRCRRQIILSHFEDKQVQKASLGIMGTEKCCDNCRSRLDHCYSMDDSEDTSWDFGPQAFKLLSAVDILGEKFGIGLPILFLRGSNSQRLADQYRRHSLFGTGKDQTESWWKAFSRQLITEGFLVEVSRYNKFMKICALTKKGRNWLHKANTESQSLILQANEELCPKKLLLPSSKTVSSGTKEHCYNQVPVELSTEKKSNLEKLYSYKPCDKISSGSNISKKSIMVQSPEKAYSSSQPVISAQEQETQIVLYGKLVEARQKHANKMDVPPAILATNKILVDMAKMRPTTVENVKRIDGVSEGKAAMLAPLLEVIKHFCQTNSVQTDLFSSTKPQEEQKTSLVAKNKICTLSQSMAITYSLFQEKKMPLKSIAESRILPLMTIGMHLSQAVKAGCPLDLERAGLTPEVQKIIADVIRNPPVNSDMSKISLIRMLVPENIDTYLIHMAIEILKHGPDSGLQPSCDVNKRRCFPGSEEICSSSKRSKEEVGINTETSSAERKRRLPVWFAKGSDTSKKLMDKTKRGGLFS

One may read the IC50 as the concentration that inhibits the measured activity by half. A lower IC50 goes with greater potency in that assay. Consider `CCc1c(N2CCN(C(=O)c3ncnc(C)c3O)CC2)c(=O)n2nc(-c3cnc4sccc4c3)nc2n1CC(=O)Nc1ccc(C(F)(F)F)cc1Cl` [WO2025049746, Example 310], for which the IC50 was 26 nM in assay [1] and 27 nM in assay [2].

For `CCc1c(N2CCN(C(=O)c3ncnc(C)c3O)CC2)c(=O)n2nc(-c3ccccc3C(=O)NC3CC3)nc2n1CC(=O)Nc1ccc(C(F)(F)F)cc1Cl` [WO2025049746, Example 269], the IC50 in assay [1] was determined as 61 nM; in assay [2], 63 nM.

As for `CCc1c(N2CCN(C(=O)c3ncnc(C)c3O)CC2)c(=O)n2nc(-c3ccc4scnc4c3)nc2n1CC(=O)Nc1ccc(C(F)(F)F)cc1Cl` [WO2025049746, Example 288], the values for the IC50 in assay [1] and in assay [2] were 40 nM and 43 nM, respectively.

Turning to `CCc1c(N2CCN(C(=O)c3ncnc(C)c3O)CC2)c(=O)n2nc(-c3ccc4cn(C)nc4c3)nc2n1CC(=O)Nc1ccc(C(F)(F)F)cc1Cl` [WO2025049746, Example 177], the concentration for half-maximal inhibition (IC50) in assay [1] was 31 nM; in assay [2], 30 nM.

As for `CCc1c(N2CCN(C(=O)c3ncnc(C)c3O)CC2)c(=O)n2nc(C3=CCOCC3)nc2n1CC(=O)NC1CC2(C1)CC2(F)F` (stereo not drawn) [WO2025049746, Example 366], the results for the IC50 in assay [1] and in assay [2] were 4200 nM and 2540 nM, respectively.

For the compound `CCc1c(N2CCN(C(=O)c3ncnc(C)c3O)CC2)c(=O)n2nc(-c3ccc4c(c3F)COC4(C)C)nc2n1CC(=O)Nc1ccc(C(F)(F)F)cc1Cl` [WO2025049746, Example 216], the IC50 in assay [1] and in assay [2] was 37 nM in each case.

On to `CCc1c(N2CCN(C(=O)c3ncnc(C)c3O)CC2)c(=O)n2nc(-c3ccc4c(c3)n(C)c(=O)n4C)nc2n1CC(=O)Nc1ccc(C(F)(F)F)cc1Cl` [WO2025049746, Example 175], for which the IC50 in assay [1] was determined as 52 nM; in assay [2], 30 nM.

On to `CCc1c(N2CCN(C(=O)c3ncnc(C)c3O)CC2)c(=O)n2nc(-c3ccc4occc4c3)nc2n1CC(=O)Nc1ccc(C(F)(F)F)cc1Cl` [WO2025049746, Example 283], for which the concentration for half-maximal inhibition (IC50) in assay [1] came out at 33 nM; in assay [2] it was 37 nM.

Regarding `CCc1c(N2CCN(C(=O)c3ncnc(C)c3O)CC2)c(=O)n2nc(C3=CCOCC3)nc2n1CC(=O)NC12CC(C3CC3)(C1)C2` [WO2025049746, Example 359], the IC50 was found to be 232 nM in assay [1] and 148 nM in assay [2].

As to `CCc1c(N2CCN(C(=O)c3ncnc(C)c3O)CC2)c(=O)n2nc(-c3cccc4c3OC(F)(F)O4)nc2n1CC(=O)Nc1ccc(C(F)(F)F)cc1Cl` [WO2025049746, Example 232], the figures for the IC50 in assay [1] and in assay [2] were 77 nM and 67 nM, respectively.

Turning to `CCc1c(N2CCN(C(=O)c3ncnc(C)c3O)CC2)c(=O)n2nc(-c3cccc4c3COC4)nc2n1CC(=O)Nc1ccc(C(F)(F)F)cc1Cl` [WO2025049746, Example 15], the figures for the IC50 in assay [1] and in assay [2] were 40 nM and 34.4 nM, respectively.

Take `CCc1c(N2CCN(C(=O)c3ncnc(C)c3O)CC2)c(=O)n2nc(-c3ccc4c(c3)ncn4C)nc2n1CC(=O)Nc1ccc(C(F)(F)F)cc1Cl` [WO2025049746, Example 254]: the IC50 in assay [1] was 25 nM; in assay [2], 24 nM.

Turning to `CCc1c(N2CCN(C(=O)c3ncnc(C)c3O)CC2)c(=O)n2nc(-c3ccc4c(c3F)CCO4)nc2n1CC(=O)Nc1ccc(C(F)(F)F)cc1Cl` [WO2025049746, Example 180], the IC50 in assay [1] turned out to be 53 nM; in assay [2], 45 nM.

Consider `CCc1c(N2CCN(C(=O)c3ncnc(C)c3O)CC2)c(=O)n2nc(-c3ccc4c(c3)CO[C@H]4C(F)(F)F)nc2n1CC(=O)Nc1ccc(C(F)(F)F)cc1Cl` [WO2025049746, Example 274], for which the IC50 in assay [1] is 493 nM; in assay [2], 554 nM.

Take `CCc1c(N2CCN(C(=O)c3ncnc(C)c3O)CC2)c(=O)n2nc(N3CCC3)nc2n1CC(=O)Nc1ccc(C(F)(F)F)c2c1CC2` [WO2025049746, Example 377]: the IC50 worked out at 45 nM in assay [1] and 32 nM in assay [2].

Regarding `CCc1c(N2CCN(C(=O)c3ncnc(C)c3O)CC2)c(=O)n2nc(-c3cccc4c3OCO4)nc2n1CC(=O)Nc1c(Cl)cc(C(F)(F)F)c2c1CC2` [WO2025049746, Example 385], the figures for the IC50 in assay [1] and in assay [2] were 96 nM and 87 nM, respectively.

Take `CCc1c(N2CCN(C(=O)c3ncnc(C)c3O)CC2)c(=O)n2c(CO)c(-c3ccc4c(c3)COC4)nc2n1CC(=O)Nc1ccc(C(F)(F)F)cc1Cl` [WO2025049746, Example 452]: the results for the concentration for half-maximal inhibition (IC50) in assay [1] and in assay [2] were 9850 nM and 29700 nM, respectively.

As for `CCc1c(N2CCN(C(=O)c3nccc4nc[nH]c34)CC2)c(=O)n2nc(-c3ccc4c(c3)CCOC4)nc2n1CC(=O)Nc1ccc(C(F)(F)F)cc1Cl` [WO2025049746, Example 92], the IC50 was determined as 27.9 nM in assay [1] and 23 nM in assay [2].

Turning to `CCc1c(N2CCN(C(=O)c3ccccc3NS(=O)(=O)C3CC3)CC2)c(=O)n2nc(N3C[C@H]4COC[C@H]4C3)nc2n1CC(=O)Nc1ccc(C(F)(F)F)cc1Cl` [WO2025049746, Example 94], the IC50 in assay [1] is 26.6 nM; in assay [2], 23.4 nM.

Turning to `CCc1c(N2CCN(C(=O)c3nccc4nc[nH]c34)CC2)c(=O)n2nc(N3C[C@H]4COC[C@H]4C3)nc2n1CC(=O)Nc1ccc(C(F)(F)F)cc1Cl` [WO2025049746, Example 95], the figures for the IC50 in assay [1] and in assay [2] were 20.1 nM and 16.3 nM, respectively.

Consider `CCc1c(N2CCN(C(=O)c3ncnc(C)c3O)CC2)c(=O)n2nc(N3CCCn4nccc43)nc2n1CC(=O)Nc1ccc(C(F)(F)F)cc1Cl` [WO2025049746, Example 31], for which the IC50 in assay [1] was found to be 45.2 nM; in assay [2], 28.9 nM.

With `CCc1c(N2CCN(C(=O)c3ncnc(C)c3O)CC2)c(=O)n2nc(-c3cncc4c3cnn4C)nc2n1CC(=O)Nc1ccc(C(F)(F)F)cc1Cl` [WO2025049746, Example 24], the IC50 was 42.9 nM in assay [1] and 32.9 nM in assay [2].

For `CCc1c(N2CCN(C(=O)c3ncnc(C)c3O)CC2)c(=O)n2nc(-c3ccc4c(c3)CN(C)C4(C)C)nc2n1CC(=O)Nc1ccc(C(F)(F)F)cc1Cl` [WO2025049746, Example 261], the figures for the IC50 in assay [1] and in assay [2] were 31 nM and 33 nM, respectively.

For `CCc1c(N2CCN(C(=O)c3ncnc(C)c3O)CC2)c(=O)n2nc(N3CCCOCC3)nc2n1CC(=O)Nc1ccc(C(F)(F)F)cc1Cl` [WO2025049746, Example 25], the IC50 in assay [1] was found to be 63.9 nM; in assay [2], 48.8 nM.

Consider `CCc1c(N2CCN(C(=O)c3ncnc(C)c3O)CC2)c(=O)n2nc(-c3cc4n(n3)CCCC4)nc2n1CC(=O)Nc1ccc(C(F)(F)F)cc1Cl` [WO2025049746, Example 184], for which the results for the half-maximal inhibitory concentration (IC50) in assay [1] and in assay [2] were 68 nM and 58 nM, respectively.

With `CCc1c(N2CCN(C(=O)c3ncnc(C)c3O)CC2)c(=O)n2nc(-c3ccc4c(c3)CC(C)O4)nc2n1CC(=O)Nc1ccc(C(F)(F)F)cc1Cl` (stereo not drawn) [WO2025049746, Example 168], the IC50 came out at 45 nM in assay [1] and 35 nM in assay [2].

For the compound `CCc1c(N2CCN(C(=O)c3ncnc(C)c3O)CC2)c(=O)n2nc(-c3ccc4nn(C(F)F)cc4c3)nc2n1CC(=O)Nc1ccc(C(F)(F)F)cc1Cl` [WO2025049746, Example 248], the IC50 in assay [1] came to 24 nM; in assay [2], 26 nM.

As to `CCc1c(N2CCN(C(=O)c3ncnc(C)c3O)CC2)c(=O)n2nc(-c3cnc4c(c3)CCOC4)nc2n1CC(=O)Nc1ccc(C(F)(F)F)cc1Cl` [WO2025049746, Example 162], the values for the 50% inhibitory concentration (IC50) in assay [1] and in assay [2] were 81 nM and 65 nM, respectively.

As for `CCc1c(N2CCN(C(=O)c3ncnc(C)c3O)CC2)c(=O)n2nc(-c3cccc4c3OCCO4)nc2n1CC(=O)Nc1ccc(C(F)(F)F)cc1Cl` [WO2025049746, Example 2], the values for the IC50 in assay [1] and in assay [2] were 27.1 nM and 18.7 nM, respectively.

As to `CCc1c(N2CCN(C(=O)c3ncnc(C)c3O)CC2)c(=O)n2nc(-c3coc4ccccc34)nc2n1CC(=O)Nc1ccc(C(F)(F)F)cc1Cl` [WO2025049746, Example 327], the concentration for half-maximal inhibition (IC50) worked out at 30 nM in assay [1] and 56 nM in assay [2].

As for `CCc1c(N2CCN(C(=O)c3ccccc3NS(=O)(=O)C3CC3)CC2)c(=O)n2nc(C3=CCOCC3)nc2n1CC(=O)Nc1ccc(C(F)(F)F)cc1Cl` [WO2025049746, Example 39], the IC50 worked out at 45.7 nM in assay [1] and 33 nM in assay [2].

On to `CCc1c(N2CCN(C(=O)c3ncnc(C)c3O)CC2)c(=O)n2nc(C3=CCOCC3)nc2n1CC(=O)NC1CC2C(C1)C2(F)F` (stereo not drawn) [WO2025049746, Example 350], for which the values for the IC50 in assay [1] and in assay [2] were 6830 nM and 6000 nM, respectively.

Turning to `CCc1c(N2CCN(C(=O)c3ncnc(C)c3O)CC2)c(=O)n2nc(-c3cc(OC)c4nn(C)cc4c3)nc2n1CC(=O)Nc1ccc(C(F)(F)F)cc1Cl` [WO2025049746, Example 286], the IC50 in assay [1] was determined as 35 nM; in assay [2] it was 38 nM.

In the case of `CCc1c(N2CCN(C(=O)c3ncnc(C)c3O)CC2)c(=O)n2nc(-c3cc(OC(F)F)n4nccc4c3F)nc2n1CC(=O)Nc1ccc(C(F)(F)F)cc1Cl` [WO2025049746, Example 317], the concentration for half-maximal inhibition (IC50) in assay [1] was 75 nM; in assay [2], 93 nM.

Consider `CCc1c(N2CCN(C(=O)c3ncnc(C)c3O)CC2)c(=O)n2nc(-c3cc4ccnn4cc3C)nc2n1CC(=O)Nc1ccc(C(F)(F)F)cc1Cl` [WO2025049746, Example 243], for which the IC50 in assay [1] was determined as 26 nM; in assay [2] it was 34 nM.

As for `CCc1c(N2CCN(C(=O)c3ncnc(C)c3O)CC2)c(=O)n2nc(-c3ccc4ncncc4c3)nc2n1CC(=O)Nc1ccc(C(F)(F)F)cc1Cl` [WO2025049746, Example 263], the half-maximal inhibitory concentration (IC50) came out at 24 nM in assay [1] and 23 nM in assay [2].

Regarding `CCc1c(N2CCN(C(=O)c3ncnc(C)c3O)CC2)c(=O)n2nc(-c3ccc4c(c3C)COC4(C)C)nc2n1CC(=O)Nc1ccc(C(F)(F)F)cc1Cl` [WO2025049746, Example 214], the IC50 came out at 45 nM in assay [1] and 38 nM in assay [2].

Turning to `CCc1c(N2CCN(C(=O)c3ncnc(C)c3O)CC2)c(=O)n2nc(-c3cccc4c3OCCO4)nc2n1CC(=O)Nc1ccc(SC(F)(F)F)cc1Cl` [WO2025049746, Example 399], the results for the IC50 in assay [1] and in assay [2] were 142 nM and 115 nM, respectively.

As to `CCc1c(N2CCN(C(=O)c3ncnc(C)c3O)CC2)c(=O)n2nc(-c3ccc4nc(NCC(F)F)oc4c3)nc2n1CC(=O)Nc1ccc(C(F)(F)F)cc1Cl` [WO2025049746, Example 303], the figures for the IC50 in assay [1] and in assay [2] were 42 nM and 45 nM, respectively.
